Assay results published in US20210145804A1, “COMPOSITIONS AND METHODS FOR TREATING DISORDERS AMELIORATED BY MUSCARINIC RECEPTOR ACTIVATION” (Karuna Therapeutics, Inc., priority 2019, published 2021).
Marks after values point to notes of the source that are not given here.

Experiments:
[1] = Mutagenic potential of xanomeline synthesis intermediate
[2] = test system: normal healthy volunteers; set-up: species or system human; settings: in vivo
Description: A Phase I, double-blind, randomized multiple-dose pilot study was conducted with xanomeline administered alone compared to xanomeline administered with trospium chloride in normal healthy volunteers. […]

Alzheimer's disease = settings: 26-week study of Alzheimer's disease; cited from earlier work
[3] = KAR-001 Phase I study: xanomeline and trospium plasma pharmacokinetics; format: in vivo, human

CCCCCCOc1nsnc1-c1ccc[n+](C)c1 [Compound V]
Mutagenic potential [1]: negative

CCCCCCOc1nsnc1C1=CCCN(C)C1 [Xanomeline + placebo, xanomeline]
AE leading to discontinuation (D/C) [2]: 2 (6.1) n (%) | AE leading to discontinuation (D/C): # events [2]: 2 | Any SAE [2]: 0 (0.0) n (%) | Any TEAE: # events [2]: 108 | Any cholinergic TEAEs, number of individual occurrences [2]: 64 # | Any clinically significant TEAE [2]: 5 (15.2) n (%) | Any clinically significant TEAE: # events [2]: 5 | Any study drug-related TEAE [2]: 23 (69.7) n (%) | Any study drug-related TEAE: # events [2]: 92 | Cholinergic adverse events, Any TEAEs: # of events [2]: 64 | Cholinergic adverse events, Any TEAEs: subjects [2]: 21 (63.6%) n [%] | Cholinergic adverse events, Diarrhea: # of events [2]: 8 | Cholinergic adverse events, Diarrhea: subjects [2]: 7 (21.2%) n [%] | Cholinergic adverse events, Nausea: # of events [2]: 11 | Cholinergic adverse events, Nausea: subjects [2]: 8 (24.2%) n [%] | Cholinergic adverse events, Salivation: # of events [2]: 16 | Cholinergic adverse events, Salivation: subjects [2]: 12 (36.4%) n [%] | Cholinergic adverse events, Sweating: # of events [2]: 24 | Cholinergic adverse events, Sweating: subjects [2]: 16 (48.5%) n [%] | Cholinergic adverse events, Vomiting: # of events [2]: 5 | Cholinergic adverse events, Vomiting: subjects [2]: 5 (15.2%) n [%] | Diarrhea, incidence [2]: 7 (20.6) n (%) | Diarrhea, number of individual occurrences [2]: 8 # | Gastrointestinal disorders (cholinergic TEAE), incidence [2]: 18 (52.9) n (%) | Gastrointestinal disorders (cholinergic TEAE), number of individual occurrences [2]: 40 # | Hyperhidrosis, incidence [2]: 16 (47.1) n (%) | Hyperhidrosis, number of individual occurrences [2]: 24 # | Incidence rate of sweating (hyperhidrosis) [2]: 48.5% | Max Severity of TEAE: Mild [2]: 22 (66.7) N/A n (%) | Max Severity of TEAE: Moderate [2]: 5 (15.2) N/A n (%) | Max Severity of TEAE: Severe [2]: 0 (0.0) n (%) | Max severity of study drug-related TEAE: Mild [2]: 19 (57/6) N/A n (%) | Max severity of study drug-related TEAE: Moderate [2]: 4 (12.1) N/A n (%) | Max severity of study drug-related TEAE: Severe [2]: 0 (0.0) N/A n (%) | Nausea, incidence [2]: 8 (23.5) n (%) | Nausea, number of individual occurrences [2]: 11 # | Salivary hypersecretion, incidence [2]: 12 (35.3) n (%) | Salivary hypersecretion, number of individual occurrences [2]: 16 # | Skin and subcutaneous tissue disorders (cholinergic TEAE), incidence [2]: 16 (47.1) n (%) | Skin and subcutaneous tissue disorders (cholinergic TEAE), number of individual occurrences [2]: 24 # | Study drug related AE leading to D/C [2]: 1 (3.0) n (%) | Study drug related AE leading to D/C: # events [2]: 1 | Subjects reporting at least one cholinergic adverse event [2]: 63% | Subjects who experienced syncope [2]: Two | Subjects with any TEAE [2]: 27 (81.8) n (%) | Subjects with any cholinergic TEAEs, incidence [2]: 21 (61.8) n (%) | Vomiting, incidence [2]: 5 (14.7) n (%) | Vomiting, number of individual occurrences [2]: 5 # | Dropout rate (Alzheimer's disease): 56%

O=C(O[C@H]1C[C@H]2CC[C@@H](C1)[N+]21CCCC1)C(O)(c1ccccc1)c1ccccc1 [trospium alone, trospium chloride]
Trospium Tmax ([3]; KAR-001 Day 1, 20 mg trospium BID lead-in, median): 3.0 h | Tmax ([3]; human, in vivo, 20 mg, KAR-001 Day 1, read-out: Trospium median Tmax): 3 h | Cmax ([3]; human, in vivo, KAR-001 Day 1, 20 mg trospium BID lead-in, geometric mean): 0.722 ng/mL | AUC(0-inf) ([3]; human, in vivo, KAR-001 Day 1, 20 mg trospium BID lead-in, geometric mean, read-out: Trospium AUC0-inf): 7.79 ng·h/mL | AUC ([3]; human, in vivo, KAR-001 Day 1, 20 mg trospium BID lead-in, geometric mean, read-out: Trospium AUC0-tau): 5.03 ng·h/mL
